Data set [1] concerns Leptosphaeria nodorum (LEPTNO). Kind of data set: Glume Blotch of Wheat, whole plant 24 Hour Protectant (T2). The note with it: Parastagonospora nodorum; wheat (cultivar Yuma), sprayed at 100 ppm, inoculated after 24 hours; read-out: T2 LEPTNO in vivo 1 Day Protectant, control of fungal infection.
Data set [2] deals with Phytophthora infestans (PHYTIN). Kind of data set: whole plant or invertebrate. Particulars: in Solanum lycopersicum, 24 h, read-out: T3 PHYTIN in vivo 1 Day Protectant, control of fungal infection.
For data set [3], the system named is Puccinia recondita (PUCCRT). Kind of data set: Brown Rust of Wheat, whole plant 24 Hour Protectant (T5). The note with it: wheat (cultivar Yuma), sprayed at 100 ppm, inoculated after 24 hours, read-out: T5 PUCCRT in vivo 1 Day Protectant, control of fungal infection.
Data set [4] deals with Septoria tritici (SEPTTR). Nature of the data set: Leaf Blotch of Wheat, whole plant 24 Hour Protectant (T6). The note with it: Zymoseptoria tritici; wheat (cultivar Monon), sprayed at 100 ppm, inoculated after 24 hours; read-out: T6 SEPTTR in vivo 1 Day Protectant, control of fungal infection.
For data set [5], the system named is Stagonospora nodorum (Leptosphaeria nodorum, LEPTNO). Nature of the data set: microbe, parasite or virus in culture. In kind it is cell-based. Particulars: Parastagonospora nodorum, read-out: T7 LEPTNO in vitro Growth Inhibition.
Data set [6] deals with Phytophthora infestans (PHYTIN). Kind of data set: microbe, parasite or virus in culture. The note with it: in Secale cereale, read-out: T8 PHYTIN in vitro Growth Inhibition. In kind it is cell-based.
Data set [7] concerns Magnaporthe grisea (Pyricularia oryzae, PYRIOR). Kind of data set: microbe, parasite or virus in culture. The note with it: read-out: T9 PYRIOR in vitro Growth Inhibition. In kind it is cell-based.
In data set [8] the test system is Rhizoctonia solani (RHIZSO). Nature of the data set: microbe, parasite or virus in culture. The data set is classed as cell-based. The note with it: read-out: T10 RHIZSO in vitro Growth Inhibition.
The test system of data set [9] is Mycosphaerella graminicola (Septoria tritici, SEPTTR). Kind of data set: microbe, parasite or virus in culture. In kind it is cell-based. Particulars: Zymoseptoria tritici, read-out: T11 SEPTTR in vitro Growth Inhibition.
For a further data set, the system named is Ustilago maydis (USTIMA). Kind of data set: microbe, parasite or virus in culture. Particulars: Mycosarcoma maydis, read-out: T12 USTIMA in vitro Growth Inhibition. In kind it is cell-based.
The subject of data set [10] is Erysiphe graminis (ERYSGT). Kind of data set: Powdery Mildew of Wheat, whole plant 24 Hour Protectant (T1). Particulars: Blumeria graminis, in Triticum aestivum, read-out: T1 ERYSGT in vivo 1 Day Protectant, control of fungal infection.

Each structure is given as a SMILES string.

Broadly, the inhibition is how much of the control response was suppressed. In general, melting point refers to the temperature of the solid-liquid transition. On to `COCCC(=O)OCOc1c(OC)ccnc1C(=O)N[C@H]1COC(=O)[C@H](Cc2ccccc2)[C@@H](OC(=O)C(C)C)[C@H](C)OC1=O` [Compound 27], for which the melting point was 84 to 86 °C. In [1], the pest or weed control at 100 ppm was 75 to 100%. For the same compound, the pest or weed control at 100 ppm in [2] is below 25%. The pest or weed control at 100 ppm in data set [3] was in the range of 75 to 100%. Further, the pest or weed control at 100 ppm in data set [4] lay within 75 to 100%. The inhibition at 25 ppm in [5] was above 80%. Also, the inhibition at 25 ppm in data set [6] is below 80%. In addition, the inhibition at 25 ppm in [7] is above 80%. Besides, the inhibition at 25 ppm in data set [8] was below 80%. The inhibition at 25 ppm in [9] was above 80%. In addition, the inhibition at 25 ppm with Ustilago maydis (USTIMA) is below 80%. Also, in [10], the pest or weed control at 100 ppm lay within 75 to 100%.
In turn, `CCOCCC(=O)OCOc1c(OC)ccnc1C(=O)N[C@H]1COC(=O)[C@H](Cc2ccccc2)[C@@H](OC(=O)C(C)C)[C@H](C)OC1=O` [Compound 28] registered a melting point of 50 to 55 °C. Also, the pest or weed control at 100 ppm in data set [1] lay within 75 to 100%. Besides, the pest or weed control at 100 ppm in [2] was below 25%. The pest or weed control at 100 ppm in [3] fell in the range of 75 to 100%. The pest or weed control at 100 ppm in data set [4] lay in the range of 75 to 100%. Moreover, the inhibition at 25 ppm in [5] was above 80%. The inhibition at 25 ppm in [6] is below 80%. For the same compound, the inhibition at 25 ppm in [7] was above 80%. Besides, in data set [8], the inhibition at 25 ppm is above 80%. For the same compound, in data set [9], the inhibition at 25 ppm is above 80%. The inhibition at 25 ppm in the data set on Ustilago maydis (USTIMA) is above 80%. For the same compound, the pest or weed control at 100 ppm in [10] lay in the range of 25 to 74%.
`COc1ccnc(C(=O)N[C@H]2COC(=O)[C@H](Cc3ccccc3)[C@@H](OC(=O)C(C)C)[C@H](C)OC2=O)c1OCOC(=O)c1ccccc1` [Compound 29]: the melting point is 65 to 70 °C. Moreover, the pest or weed control at 100 ppm in data set [1] was in the range of 75 to 100%. In addition, in data set [2], the pest or weed control at 100 ppm was below 25%. The pest or weed control at 100 ppm in data set [3] was 75 to 100%. Further, the pest or weed control at 100 ppm in [4] was in the range of 75 to 100%. Also, the inhibition at 25 ppm in data set [5] was above 80%. For the same compound, the inhibition at 25 ppm in data set [6] is below 80%. In data set [7], the inhibition at 25 ppm is below 80%. Also, the inhibition at 25 ppm in data set [8] is below 80%. Further, the inhibition at 25 ppm in [9] was below 80%. Moreover, the inhibition at 25 ppm in the data set with Ustilago maydis (USTIMA) is below 80%. In addition, in data set [10], the pest or weed control at 100 ppm is 25 to 74%.
For the compound `CCOCC(=O)OCOc1c(OC)ccnc1C(=O)N[C@H]1COC(=O)[C@H](Cc2ccccc2)[C@@H](OC(=O)C(C)C)[C@H](C)OC1=O` [Compound 31], the melting point was 79 to 81 °C. Further, the pest or weed control at 100 ppm in data set [1] fell in the range of 75 to 100%. Moreover, in [2], the pest or weed control at 100 ppm was below 25%. For the same compound, the pest or weed control at 100 ppm in [3] is 75 to 100%. Also, in data set [4], the pest or weed control at 100 ppm lay within 75 to 100%. Further, in data set [5], the inhibition at 25 ppm is above 80%. Moreover, the inhibition at 25 ppm in data set [6] was below 80%. Besides, the inhibition at 25 ppm in data set [7] is above 80%. For the same compound, the inhibition at 25 ppm in data set [8] was below 80%. Also, the inhibition at 25 ppm in [9] was below 80%. In addition, the inhibition at 25 ppm with Ustilago maydis (USTIMA) was below 80%. In addition, the pest or weed control at 100 ppm in data set [10] was in the range of 25 to 74%.
On to `COc1ccnc(C(=O)N[C@H]2COC(=O)[C@H](Cc3ccccc3)[C@@H](OC(=O)C(C)C)[C@H](C)OC2=O)c1OCOC(=O)C1CCCC1` [Compound 33], for which the melting point lay within 128 to 129 °C. In addition, in data set [1], the pest or weed control at 100 ppm was in the range of 75 to 100%. For the same compound, the pest or weed control at 100 ppm in data set [2] is below 25%. Also, the pest or weed control at 100 ppm in data set [3] lay in the range of 75 to 100%. Besides, the pest or weed control at 100 ppm in [4] was 75 to 100%. Further, in [5], the inhibition at 25 ppm is above 80%. In data set [6], the inhibition at 25 ppm was below 80%. The inhibition at 25 ppm in [7] is above 80%. In data set [8], the inhibition at 25 ppm was below 80%. In data set [9], the inhibition at 25 ppm is below 80%. Also, in the data set on Ustilago maydis (USTIMA), the inhibition at 25 ppm was below 80%. Moreover, the pest or weed control at 100 ppm in data set [10] was in the range of 25 to 74%.
`COC(=O)OCOc1c(OC)ccnc1C(=O)N[C@H]1COC(=O)[C@H](Cc2ccccc2)[C@@H](OC(=O)C(C)C)[C@H](C)OC1=O` [Compound 44] came in with a melting point of 140 to 144 °C. The pest or weed control at 100 ppm in [1] was in the range of 75 to 100%. The pest or weed control at 100 ppm in [2] was below 25%. In data set [3], the pest or weed control at 100 ppm lay in the range of 75 to 100%. Besides, the pest or weed control at 100 ppm in [4] fell in the range of 75 to 100%. Besides, in data set [5], the inhibition at 25 ppm is above 80%. Besides, the inhibition at 25 ppm in [6] is below 80%. Moreover, the inhibition at 25 ppm in data set [7] was below 80%. Further, the inhibition at 25 ppm in [8] was below 80%. The inhibition at 25 ppm in [9] was above 80%. Also, the inhibition at 25 ppm in the data set on Ustilago maydis (USTIMA) is below 80%. Also, the pest or weed control at 100 ppm in data set [10] lay within 25 to 74%.
`COc1ccnc(C(=O)N[C@H]2COC(=O)[C@H](Cc3ccccc3)[C@@H](OCC(C)C)[C@H](C)OC2=O)c1OCOC(C)=O` [Compound 49] registered a melting point of 130 to 131 °C. Also, in data set [1], the pest or weed control at 100 ppm fell in the range of 75 to 100%. Besides, the pest or weed control at 100 ppm in [2] lay in the range of 25 to 74%. In data set [3], the pest or weed control at 100 ppm lay in the range of 75 to 100%. Further, in data set [4], the pest or weed control at 100 ppm is 75 to 100%. Moreover, the inhibition at 25 ppm in data set [5] is above 80%. The inhibition at 25 ppm in [6] is below 80%. The inhibition at 25 ppm in data set [7] was above 80%. Moreover, the inhibition at 25 ppm in data set [8] is below 80%. Besides, in [9], the inhibition at 25 ppm is above 80%. Also, in the data set with Ustilago maydis (USTIMA), the inhibition at 25 ppm was below 80%. Also, the pest or weed control at 100 ppm in data set [10] fell in the range of 75 to 100%.
Regarding `COc1ccnc(C(=O)N[C@H]2COC(=O)[C@H](Cc3ccccc3)[C@@H](OC3CCCC3)[C@H](C)OC2=O)c1OCOC(C)=O` [Compound 50], the melting point fell in the range of 130 to 132 °C. In addition, the pest or weed control at 100 ppm in [1] lay within 75 to 100%. Besides, the pest or weed control at 100 ppm in [2] was in the range of 25 to 74%. For the same compound, the pest or weed control at 100 ppm in [3] was 75 to 100%. Also, the pest or weed control at 100 ppm in [4] was 75 to 100%. Also, in data set [5], the inhibition at 25 ppm was above 80%. Also, in data set [6], the inhibition at 25 ppm is below 80%. In addition, the inhibition at 25 ppm in data set [7] is above 80%. For the same compound, the inhibition at 25 ppm in data set [8] was below 80%. Further, in data set [9], the inhibition at 25 ppm was below 80%. Besides, in the data set with Ustilago maydis (USTIMA), the inhibition at 25 ppm is below 80%. In addition, the pest or weed control at 100 ppm in [10] lay within 25 to 74%.

For the origin of these results see patent US6861390B2, “Derivatives of UK-2A” (priority 2001, dated 2005).
